Values after ≈ are worked out from the molar mass of the structure shown. Values joined by “and” are separate entries in the source; they are usually repeats but may differ in a detail not shown here. Equal values may be shown once.
Key:
[1] = molecular target: T1, S. aureus ATCC 29213 FabI (Staphylococcus aureus, UniProt Q6GI75); test: Staphylococcus aureus FabI enzyme inhibition assay; type: biochemical; conditions: read-out: FabI (300.235) IC50 (converted)
T1 sequence (Q6GI75 1-256): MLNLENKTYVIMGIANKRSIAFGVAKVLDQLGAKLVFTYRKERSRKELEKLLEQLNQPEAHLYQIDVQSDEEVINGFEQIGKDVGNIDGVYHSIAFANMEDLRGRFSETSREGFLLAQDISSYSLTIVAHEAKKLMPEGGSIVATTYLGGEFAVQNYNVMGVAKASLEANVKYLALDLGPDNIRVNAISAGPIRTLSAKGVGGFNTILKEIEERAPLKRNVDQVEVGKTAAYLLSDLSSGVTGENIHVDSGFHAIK
Experimental: Y.1 FabI Enzyme Inhibition: Staphylococcus aureus FabI Enzyme Inhibition Assay
FabI enzyme inhibition assays were carried out in half-area, 384-well microtitre plates. Compounds were evaluated in 40-μl assay mixtures containing 100 mM NaADA, pH 6.5 (ADA=N-[2-acetamido]-2iminodiacetic acid), 250 μM crotonoyl-CoA, 625 μM NADH and 50 μg/ml S. aureus ATCC 29213 FabI. Inhibitors were typically varied over the range of 50 to 0.39 μM. The reaction mixtures were incubated for 30 minutes at room temperature and the reaction was stopped by adding 200 mM Tris buffer (pH 9.0) to create a pH-shift. The consumption of NADH was monitored by measuring the change in absorbance at […]. By comparing sample readings to those of negative (absence of compound) and positive (absence of enzyme) controls, the percent inhibition of enzymatic activity of the compounds was determined A best-fit curve is fitted by a minimum of squares method. From this an IC50-value (expressed in μg/ml), resulting in 50% inhibition of enzymatic activity, was obtained.

[2] = Cytotoxicity MTT assay (HELAM); type: cell-based, Human; conditions: human, HelaM cells, read-out: HELAM (222.125) CC50
Experimental: Cytotoxicity of the compounds was evaluated using the MTT assay. Human HelaM cells grown in 96-well plates were exposed to serial dilutions of the tested compounds (final volume of 0.2 ml) and incubated for 72 hours at 37° C. and 5% CO2. Inhibitors are typically varied over the range of 25 to 0.8 μM. The final DMSO concentration in the assay is 0.5%. MTT (3-(4,5-Dimethylthiazol-2-yl)-2,5-diphenyltetrazolium bromide, a tetrazole) was added and reduced to purple formazan only in living cells. Solubilization of the formazan crystals was achieved by adding 100 μl 2-propanol. Cell viability was determined by measuring the absorbance of the reduced formazan, giving a purple color, at 540 nm and 690 nm. The absorbance measured at 690 nm was automatically subtracted from the absorbance at 540 nm, to eliminate the effects of non-specific absorption. The percent cytotoxicity achieved by the compounds was calculated according to standard methods. Cytotoxicity is reported as CC50, the concentration that causes a 50% reduction in cell viability.
The results are depicted in the table(s) below (HELAM).

[3] = test system: Staphylococcus aureus ATCC 29213; test: Antibacterial susceptibility testing, IC90 determination (STA); type: cell-based; conditions: Staphylococcus aureus, ATCC29213, Staphylococcus aureus ATCC 29213, broth microdilution, resazurin; read-out: STA (361.159) IC90
Experimental: (§1) The following bacteria were used: Staphylococcus aureus ATCC 29213, methicillin-resistant Staphylococcus aureus (MRSA) ATCC 700788 and Escherichia coli ATCC 35218. The bacteria used in this study were grown overnight in flasks containing 100 ml Mueller-Hinton broth (Difco cat. nr. 0757-17) in sterile de-ionized water, with shaking, at 37° C. Stocks were store at −70° C. until use.
(§2) Bacteria were incubated on a tryptic soy agar plate containing 5% sheep blood (Becton Dickinson cat. nr. 254053) for 18-24 hours at 35° C. in aerobic conditions (first passage). For the second passage, fresh Mueller-Hinton broth is inoculated with 5-10 colonies and grown overnight at 35° C. until turbidity (reaching log-phase) in aerobic conditions is reached. The bacterial suspension is then adjusted to 0.5 McFarland density and further diluted 1:100 in Mueller Hinton broth medium. This is used as inoculum.
The result(s) are depicted the table below (for STA ATCC 29213).
(§3) MIC assays were performed by the broth microdilution method in a 96-well format (flat-bottom microtitre plates) with a final volume of 0.1 ml Mueller Hinton broth containing two-fold serial dilutions of compounds and inoculated with 5×10^5 CFU/ml of bacteria (standard inoculum size according to CLSI guidelines). Inhibitors are typically varied over the range of 63 to 0.49 μM. The final DMSO concentration in the assay was 1.25% (maximum tolerable DMSO concentration=6%). In the assays where the effect of human serum on the activity of the compounds against S. aureus was tested, human serum was added at a final concentration of 10%. The plates were incubated at 35° C. for 16-20 hours. At the end of incubation the bacterial growth was quantified fluorometrically. For this, resazurin was added to all wells and the plates were re-incubated. The incubation time is dependent on the type of bacteria. A change in color from blue to pink indicated the growth of bacteria. The fluorescence was read in computer-controlled fluorometer (Fluoroskan Ascent FL, Labsystems) at an excitation wavelength 540 nm and an emission wavelength of 590 nm. The % growth inhibition achieved by the compounds was calculated according to standard methods. The IC90 (expressed in μg/ml) was defined as the 90% inhibitory concentration for bacterial growth. A panel of reference compounds were simultaneously tested for QC approval.

S. aureus = test: Antibacterial susceptibility testing, IC90 determination with 10% human serum (STA + 10% HS); type: cell-based, Staphylococcus aureus; conditions: Staphylococcus aureus, human serum at final concentration of 10%, read-out: STA + 10% HS (361.169) IC90
Experimental: as §1, §2, §3
The results are depicted in the table(s) below (STA+10% HS).

Structure (SMILES) | IC50 [1] [µM] | CC50 at 72 h [2] [µg/mL] | melting point | IC90 [3] [µg/mL] | IC90 (S. aureus) [µg/mL]
O=C1COCc2cc(/C=C/C(=O)N3C[C@H]4CC(c5ccccc5)=C[C@H]4C3)cnc2N1 (single isomer, unassigned) [compound 53] | 1.47 | > 10.1 | 272.58 °C | 0.37 (≈ 0.922 µM) | 0.7
O=C(Nc1ccc(/C=C/C(=O)N2CC3C=C(c4ccccc4)CC3C2)cn1)c1cccnc1 (stereo not drawn) [Cpd. No. 3] | 1.81 | 1.23 (≈ 2.82 µM) | 238 °C | 0.21 (≈ 0.481 µM) | 0.79
Cc1cncc(C(=O)Nc2ccc(/C=C/C(=O)N3CC4C=C(c5ccccc5)CC4C3)cn2)c1 (stereo not drawn) [compound 1] | 1.82 | > 4.5 | 214 °C | 0.17 (≈ 0.377 µM) | 0.67
O=C(Nc1ccc(/C=C/C(=O)N2CC3C=C(c4ccccc4)CC3C2)cn1)c1ccoc1 (stereo not drawn) [compound 2] | 7.59 | 7.57 (≈ 17.8 µM) | 202 °C | 0.21 (≈ 0.494 µM) | 1.66
O=C(Nc1ccc(/C=C/C(=O)N2CC3C=C(c4ccsc4)CC3C2)cn1)c1cccnc1 (stereo not drawn) [compound 4] |  | 0.97 (≈ 2.19 µM) | 236.37 °C and 236 °C | < 0.21 | 0.28
Cc1cncc(C(=O)Nc2ccc(/C=C/C(=O)N3CC4C=C(c5ccsc5)CC4C3)cn2)c1 (stereo not drawn) [compound 5] | 1.73 | 10.1 (≈ 22.1 µM) | 208.43 °C | < 0.22 | 0.36
Cc1cncc(C(=O)Nc2ccc(/C=C/C(=O)N3CC4C=C(c5nccs5)CC4C3)cn2)c1 (stereo not drawn) [compound 6] |  | > 11.5 | 230.99 °C and 231 °C | < 0.22 | < 0.22
Cc1cncc(C(=O)Nc2ccc(/C=C/C(=O)N3CC4C=C(c5ccncc5)CC4C3)cn2)c1 (stereo not drawn) [compound 8] | 1.24 | > 11.3 | 202.82 °C | 0.316 (≈ 0.7 µM) | 0.398
CC(=O)Nc1ccc(/C=C/C(=O)N2CC3C=C(c4ccccc4)CC3C2)cn1 (stereo not drawn) [compound 10] | 1.07 | > 9.38 | 251 °C and 251.61 °C | 0.34 (≈ 0.91 µM) | 0.5
Cc1occc1C(=O)Nc1ccc(/C=C/C(=O)N2CC3C=C(c4ccccc4)CC3C2)cn1 (stereo not drawn) [compound 11] | 3.23 | 5.16 (≈ 11.7 µM) | 140 °C | 0.47 (≈ 1.07 µM) | 3.33
O=C(Nc1ccc(/C=C/C(=O)N2CC3C=C(c4ccccc4)CC3C2)cn1)c1ccncc1 (stereo not drawn) [compound 12] | 2.04 | > 11 | 184 °C | 0.5 (≈ 1.15 µM) | 1.58
O=C(Nc1ccc(/C=C/C(=O)N2CC3C=C(c4ccccc4)CC3C2)cn1)c1ccccc1 (stereo not drawn) [compound 13] | 3.56 | > 10.9 | 120 °C | 0.76 (≈ 1.75 µM) | 5.36
O=C(Cc1ccncc1)Nc1ccc(/C=C/C(=O)N2CC3C=C(c4ccccc4)CC3C2)cn1 (stereo not drawn) [compound 14] | 1.73 | > 11.3 | 239.7 °C | 0.86 (≈ 1.91 µM) | 2.65
Nc1ccc(/C=C/C(=O)N2CC3C=C(c4ccccc4)CC3C2)cn1 (stereo not drawn) [compound 15] | 2.35 | > 8.32 | 236 °C | 1.23 (≈ 3.71 µM) | 2.43
Cc1cncc(C(=O)Nc2ccc(/C=C/C(=O)N3CC4C=C(c5ccnn5C)CC4C3)cn2)c1 (stereo not drawn) [compound 16] | 1.32 | > 11.4 | 173.34 °C | 1.25 (≈ 2.75 µM) | 1.63
O=C(Cc1ccncc1)Nc1ccc(/C=C/C(=O)N2CC3C=C(c4ccncc4)CC3C2)cn1 (stereo not drawn) [compound 17] | 1.44 | > 4.51 | > 250 °C | 1.33 (≈ 2.95 µM) | 1.4
COC(=O)CCC(=O)Nc1ccc(/C=C/C(=O)N2CC3C=C(c4ccccc4)CC3C2)cn1 (stereo not drawn) [compound 18] | 2.56 | > 11.2 | 216 °C and 216.42 °C | 1.6 (≈ 3.59 µM) | 3.05
Cc1cc(C(=O)Nc2ccc(/C=C/C(=O)N3CC4C=C(c5ccccc5)CC4C3)cn2)c(C)o1 (stereo not drawn) [compound 19] | 4.67 | 10.8 (≈ 23.7 µM) | 184.41 °C | 1.61 (≈ 3.55 µM) | 16.1
COc1cncc(C(=O)Nc2ccc(/C=C/C(=O)N3CC4C=C(c5ccncc5)CC4C3)cn2)c1 (stereo not drawn) [compound 30] | 1.39 | > 11.7 | 142 °C | < 0.23 | < 0.23
O=C1Nc2ncc(/C=C/C(=O)N3CC4C=C(c5ccccc5)CC4C3)cc2C(=O)N2CCNCC12 (stereo not drawn) [compound 81] |  |  | 230 to 232 °C | 0.45 (≈ 0.958 µM) | 0.43
